target: T1, RORγt ligand-binding domain (RORγt-LBD) (Homo sapiens, UniProt P51449); assay: Time-resolved FRET (TR-FRET) RORγt coactivator assay; format: biochemical; conditions: GST-RORγ-LBD, biotinylated RIP140 peptide, coactivator displacement
T1 construct: 20 nM recombinantly expressed RORγ-LBD fused to GST
T1 sequence (P51449 269-508 limits assumed): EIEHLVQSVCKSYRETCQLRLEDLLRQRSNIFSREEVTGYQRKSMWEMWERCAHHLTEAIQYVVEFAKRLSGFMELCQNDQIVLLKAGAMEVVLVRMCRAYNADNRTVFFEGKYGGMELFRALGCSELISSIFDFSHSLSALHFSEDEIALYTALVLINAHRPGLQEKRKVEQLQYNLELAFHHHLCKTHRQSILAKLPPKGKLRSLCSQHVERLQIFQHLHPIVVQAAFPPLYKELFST
From the text: Time-resolved FRET (TR-FRET) RORγt coactivator assay was used to identify RORγ modulator compounds with ligand-dependent coactivator displacement. The assay uses a d2-labeled anti-GST antibody, synthetic N-terminally biotinylated peptide which is derived from nuclear receptor coactivator protein RIP140, and a RORγt ligand-binding domain (RORγt-LBD) that is tagged with glutathione-S-transferase (GST). The influence of compounds on the RORγ-peptide interaction relies on the binding dependent energy transfer from a donor to an acceptor fluorophore attached to the binding partner of interest. […] For reduction of background from compound fluorescence, TR-FRET method makes use of generic fluorophore labels and time resolved detection.
The assays were done in a final volume of 20 μl in a 384 well plate in a CHAPS buffer (2 mM CHAPS; 1 mM DTT, 2 mM EDTA; 0.1% BSA), containing 20 nM recombinantly expressed RORγ-LBD fused to GST, 30 nM N-terminally biotinylated peptide, 1 nM streptavidin-terbium conjugate and 20 nM d2 labeled-anti-GST. Test compounds were diluted using 10 mM stock solution. The range of the final compound concentrations used in this test was from 0.3 nM to 30 μM (logarithmic scale). DMSO content of the samples was kept at 1%. The assay was equilibrated for 2 hours in the dark at room temperature in 384 well plates (Falcon). The signal was detected by an Ultra384 reader (TECAN). The results were visualized by plotting the ratio between the emitted light at 665 nm and 620 nm. A basal level of RORγ-peptide formation is observed in the absence of added compound. Compounds that promote coactivator displacement induce a concentration-dependent decrease in time-resolved fluorescent signal. Data were collected and analyzed using GraphPad Prism software (GraphPad Software V5.02, San Diego Calif. USA). IC50 in μM and Emax in % were reported for each compound.

Row | Structure (SMILES) | IC50
1 | CC(C)(C)OC(=O)CCc1c[nH]c2ccc(CC(=O)NC(c3ccccc3)c3ccccc3N3CCCCC3)cc12 (centres unmarked) [Cpd. 2, tert-butyl 3-{5-[({phenyl[2-(piperidin-1-yl)phenyl]methyl}carbamoyl)methyl]-1H-indol-3-yl}propanoate] | 1000 to 10000 nM
2 | Cc1ccc(C(NC(=O)Cc2ccc3[nH]cc(CCC(=O)O)c3c2)c2ccccc2)c(C)c1 (centres unmarked) [Cpd. 11, 3-[5-({[(2,4-dimethylphenyl)(phenyl)methyl]carbamoyl}methyl)-1H-indol-3-yl]propanoic acid] | < 1000 nM
3 | Cc1ccc(C)c(C(NC(=O)Cc2ccc3[nH]cc(CCC(=O)O)c3c2)c2ccccc2)c1 (centres unmarked) [Cpd. 13, 3-[5-({[(2,5-dimethylphenyl)(phenyl)methyl]carbamoyl}methyl)-1H-indol-3-yl]propanoic acid] | < 1000 nM
4 | Cc1cc(Cl)ccc1C(NC(=O)Cc1ccc2[nH]cc(CCC(=O)OC(C)(C)C)c2c1)c1ccccc1 (centres unmarked) [Cpd. 34, tert-butyl 3-[5-({[(4-chloro-2-methylphenyl)(phenyl)methyl]carbamoyl}methyl)-1H-indol-3-yl]propanoate] | 1000 to 10000 nM
5 | COC(=O)Cc1c[nH]c2ccc(CC(=O)NC(c3ccccc3)c3ccccc3N3CCCCC3)cc12 (centres unmarked) [Cpd. 40, methyl 2-{5-[({phenyl[2-(piperidin-1-yl)phenyl]methyl}carbamoyl)methyl]-1H-indol-3-yl}acetate] | < 1000 nM
6 | Cc1ccc(Cl)c(C(NC(=O)Cc2ccc3[nH]cc(CCC(=O)OC(C)(C)C)c3c2)c2ccccc2)c1 (centres unmarked) [Cpd. 41, tert-butyl 3-[5-({[(2-chloro-5-methylphenyl)(phenyl)methyl]carbamoyl}methyl)-1H-indol-3-yl]propanoate] | 1000 to 10000 nM
7 | Cc1cc(F)ccc1C(NC(=O)Cc1ccc2[nH]cc(CCC(=O)OC(C)(C)C)c2c1)c1ccccc1 (centres unmarked) [Cpd. 45, tert-butyl 3-[5-({[(4-fluoro-2-methylphenyl)(phenyl)methyl]carbamoyl}methyl)-1H-indol-3-yl]propanoate] | 10000 to 30000 nM
8 | CC(C)(C)OC(=O)CCc1c[nH]c2ccc(CC(=O)NC(c3ccccc3)c3ccccc3N)cc12 (centres unmarked) [Cpd. 51, tert-butyl 3-[5-({[(2-aminophenyl)(phenyl)methyl]carbamoyl}methyl)-1H-indol-3-yl]propanoate] | 1000 to 10000 nM
9 | CN(C)c1ccccc1C(NC(=O)Cc1ccc2[nH]cc(CCC(=O)OC(C)(C)C)c2c1)c1ccccc1 (centres unmarked) [Cpd. 53, tert-butyl 3-{5-[({[2-(dimethylamino)phenyl](phenyl)methyl}carbamoyl)methyl]-1H-indol-3-yl}propanoate] | 1000 to 10000 nM
10 | CC(C)CC(NC(=O)Cc1ccc2[nH]cc(CCC(=O)OC(C)(C)C)c2c1)c1ccccc1N1CCOCC1 (centres unmarked) [Cpd. 57, tert-butyl 3-{5-[({3-methyl-1-[2-(morpholin-4-yl)phenyl]butyl}carbamoyl)methyl]-1H-indol-3-yl}propanoate] | 1000 to 10000 nM
11 | N#Cc1ccc(C(NC(=O)Cc2ccc3[nH]cc(CCC(=O)O)c3c2)c2ccccc2)c(N2CCCC2)c1 (centres unmarked) [Cpd. 60, 3-{5-[({[4-cyano-2-(pyrrolidin-1-yl)phenyl](phenyl)methyl}carbamoyl)methyl]-1H-indol-3-yl}propanoic acid] | < 1000 nM
12 | CC(C)(C)OC(=O)CCc1c[nH]c2ccc(CC(=O)NC(c3ccccc3)c3cc(Cl)ccc3N3CCCCC3)cc12 (centres unmarked) [Cpd. 61, tert-butyl 3-{5-[({[5-chloro-2-(piperidin-1-yl)phenyl](phenyl)methyl}carbamoyl)methyl]-1H-indol-3-yl}propanoate] | 1000 to 10000 nM
13 | COC(=O)Cc1c[nH]c2ccc(CC(=O)NC(c3ccccc3)c3ccc(Br)cc3N3CCCC3)cc12 (centres unmarked) [Cpd. 66, methyl 2-{5-[({[4-bromo-2-(pyrrolidin-1-yl)phenyl](phenyl)methyl}carbamoyl)methyl]-1H-indol-3-yl}acetate] | < 1000 nM
14 | COC(=O)Cc1c[nH]c2ccc(NC(=O)NC(c3ccccc3)c3ccccc3N3CCCCC3)cc12 (centres unmarked) [Cpd. 68, methyl 2-{5-[({phenyl[2-(piperidin-1-yl)phenyl]methyl}carbamoyl)amino]-1H-indol-3-yl}acetate] | 1000 to 10000 nM

From patent US9902725B2, “Heterocyclic derivatives as RORgamma modulators” (GENFIT, priority 2014, dated 2018)
